{
  "source": "paper PMC8766756",
  "about": "“Insights on Cancer Cell Inhibition, Subcellular Activities, and Kinase Profile of Phenylacetamides Pending 1H-Imidazol-5-One Variants” (Frontiers in Pharmacology, 2022)",
  "assay_in_all_cases": "PamChip tyrosine kinase microarray",
  "type_in_all_cases": "biochemical",
  "settings_in_all_cases": "0.1 µM, HL60 lysate",
  "key": {"[1]": {"biological_target": "T1, EphA1 (P21709) (Homo sapiens, UniProt P21709)", "T1 construct": "purchased PamGene (PamChip PTK array, Upstream Kinase Analysis)", "T1 sequence (P21709 26-976)": "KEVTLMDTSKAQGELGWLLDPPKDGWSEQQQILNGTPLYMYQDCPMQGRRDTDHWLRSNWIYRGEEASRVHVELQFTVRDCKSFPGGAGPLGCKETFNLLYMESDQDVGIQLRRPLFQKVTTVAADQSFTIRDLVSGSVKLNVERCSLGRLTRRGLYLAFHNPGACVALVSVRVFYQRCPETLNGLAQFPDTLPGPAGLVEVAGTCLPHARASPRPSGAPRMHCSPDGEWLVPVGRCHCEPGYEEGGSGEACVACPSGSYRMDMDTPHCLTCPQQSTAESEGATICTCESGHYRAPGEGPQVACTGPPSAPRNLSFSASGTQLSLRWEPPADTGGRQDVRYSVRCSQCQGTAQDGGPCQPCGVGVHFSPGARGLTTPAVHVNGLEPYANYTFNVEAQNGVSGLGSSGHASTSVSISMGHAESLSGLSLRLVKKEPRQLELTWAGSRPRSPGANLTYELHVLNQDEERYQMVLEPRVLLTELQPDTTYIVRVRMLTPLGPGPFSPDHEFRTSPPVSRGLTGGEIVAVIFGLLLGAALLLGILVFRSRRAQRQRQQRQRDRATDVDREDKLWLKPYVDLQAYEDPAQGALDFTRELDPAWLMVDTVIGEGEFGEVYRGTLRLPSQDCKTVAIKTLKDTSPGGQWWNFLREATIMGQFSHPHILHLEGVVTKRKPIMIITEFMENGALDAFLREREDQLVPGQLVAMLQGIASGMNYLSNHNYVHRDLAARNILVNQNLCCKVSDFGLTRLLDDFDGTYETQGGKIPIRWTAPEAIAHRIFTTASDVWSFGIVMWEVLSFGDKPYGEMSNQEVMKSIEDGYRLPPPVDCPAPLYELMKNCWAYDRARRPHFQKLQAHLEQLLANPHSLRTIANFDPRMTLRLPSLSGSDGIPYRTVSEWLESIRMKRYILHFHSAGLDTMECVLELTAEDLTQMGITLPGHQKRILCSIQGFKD", "how_it_was_run": "(§1)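 HL60 (AML) cell lysate was spiked with compound at 0.001, 0.01, 0.1, 1, 10 and 50 µM, or 2% v/v DMSO as control, then profiled in technical replicates on a tyrosine kinase peptide array of 196 phosphosites. Kinase activity was inferred from peptide-set changes using an upstream kinase tool.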"}, "[2]": {"biological_target": "T2, HER3 (P21860) (Homo sapiens, UniProt P21860)", "T2 construct": "purchased PamGene (PamChip PTK array, Upstream Kinase Analysis)", "T2 sequence (P21860 20-1342)": "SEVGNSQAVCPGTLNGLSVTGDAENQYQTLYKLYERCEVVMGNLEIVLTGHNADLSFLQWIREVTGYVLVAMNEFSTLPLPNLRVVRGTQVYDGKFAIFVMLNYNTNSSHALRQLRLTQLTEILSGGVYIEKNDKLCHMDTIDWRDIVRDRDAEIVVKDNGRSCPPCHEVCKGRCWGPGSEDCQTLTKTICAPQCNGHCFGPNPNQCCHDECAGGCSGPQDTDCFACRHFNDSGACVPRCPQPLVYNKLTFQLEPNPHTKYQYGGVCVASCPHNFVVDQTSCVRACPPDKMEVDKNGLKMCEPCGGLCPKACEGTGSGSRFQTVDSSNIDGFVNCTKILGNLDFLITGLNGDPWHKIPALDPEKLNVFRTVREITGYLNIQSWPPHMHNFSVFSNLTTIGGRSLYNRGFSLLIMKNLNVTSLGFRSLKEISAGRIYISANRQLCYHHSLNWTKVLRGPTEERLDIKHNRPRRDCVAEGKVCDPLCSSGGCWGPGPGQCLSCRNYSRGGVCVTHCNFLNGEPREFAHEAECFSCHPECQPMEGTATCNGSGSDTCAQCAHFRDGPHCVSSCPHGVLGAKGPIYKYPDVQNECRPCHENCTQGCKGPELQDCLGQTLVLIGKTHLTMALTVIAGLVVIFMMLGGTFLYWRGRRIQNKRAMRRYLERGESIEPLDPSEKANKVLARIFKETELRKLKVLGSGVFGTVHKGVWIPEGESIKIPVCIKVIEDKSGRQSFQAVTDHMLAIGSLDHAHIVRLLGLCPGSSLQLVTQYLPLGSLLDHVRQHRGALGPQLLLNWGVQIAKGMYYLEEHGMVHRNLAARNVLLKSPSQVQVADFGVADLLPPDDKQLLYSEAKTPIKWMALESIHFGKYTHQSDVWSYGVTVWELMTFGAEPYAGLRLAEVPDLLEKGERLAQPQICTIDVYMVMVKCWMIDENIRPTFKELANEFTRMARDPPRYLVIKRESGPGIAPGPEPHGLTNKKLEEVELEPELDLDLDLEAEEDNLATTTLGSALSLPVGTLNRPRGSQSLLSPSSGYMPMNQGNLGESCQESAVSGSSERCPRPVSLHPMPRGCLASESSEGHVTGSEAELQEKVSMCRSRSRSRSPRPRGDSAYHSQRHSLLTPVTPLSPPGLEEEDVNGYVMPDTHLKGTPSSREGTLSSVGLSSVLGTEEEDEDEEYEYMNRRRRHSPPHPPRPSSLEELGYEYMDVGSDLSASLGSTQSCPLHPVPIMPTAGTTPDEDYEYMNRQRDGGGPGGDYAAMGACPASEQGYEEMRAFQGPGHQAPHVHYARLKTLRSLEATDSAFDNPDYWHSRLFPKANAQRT", "how_it_was_run": "as §1"}, "[3]": {"biological_target": "T3, Src (P12931) (Homo sapiens, UniProt P12931)", "T3 construct": "purchased PamGene (PamChip PTK array, Upstream Kinase Analysis)", "T3 sequence (P12931 whole entry)": "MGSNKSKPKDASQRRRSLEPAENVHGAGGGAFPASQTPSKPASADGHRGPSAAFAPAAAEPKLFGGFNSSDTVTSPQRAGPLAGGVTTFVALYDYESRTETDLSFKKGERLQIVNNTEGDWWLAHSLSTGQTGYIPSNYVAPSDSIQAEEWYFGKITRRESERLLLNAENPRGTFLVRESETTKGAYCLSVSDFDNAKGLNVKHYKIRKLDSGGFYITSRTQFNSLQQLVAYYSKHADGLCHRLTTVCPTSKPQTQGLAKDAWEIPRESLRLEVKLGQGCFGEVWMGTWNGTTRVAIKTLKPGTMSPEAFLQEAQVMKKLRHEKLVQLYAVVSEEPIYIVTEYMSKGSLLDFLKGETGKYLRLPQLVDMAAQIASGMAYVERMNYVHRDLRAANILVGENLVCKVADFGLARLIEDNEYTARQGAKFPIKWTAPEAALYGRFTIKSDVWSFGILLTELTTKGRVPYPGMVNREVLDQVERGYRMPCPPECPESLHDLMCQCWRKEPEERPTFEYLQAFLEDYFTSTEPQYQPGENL", "how_it_was_run": "as §1"}},
  "note": "“And” between values parts separate entries of the source, which are not always exact repeats. Equal values may be shown once.",
  "data": [
    {"smiles": "COc1ccc(/C=C2\\N=C(C)N(c3ccc(CC(=O)NCc4ccccc4)cc3)C2=O)cc1", "note": "[Compound 4c, (Z)-N-Benzyl-2-(4-(4-(4-methoxybenzylidene)-2-methyl-5-oxo-4,5-dihydro-1H-imidazol-1-yl)phenyl)acetamide]", "values": [
      {"measurement": "Mean Final score (Kinase score)", "setting": "[1]", "value": 2.326},
      {"measurement": "Mean Kinase Statistic", "setting": "[1]", "value": -1.184},
      {"measurement": "Mean Significance Score", "setting": "[1]", "value": 1.983},
      {"measurement": "Mean Specificity Score", "setting": "[1]", "value": 0.3263},
      {"measurement": "Mean Final score (Kinase score)", "setting": "[2]", "value": 2.412},
      {"measurement": "Mean Kinase Statistic", "setting": "[2]", "value": -1.214},
      {"measurement": "Mean Significance Score", "setting": "[2]", "value": 2.014},
      {"measurement": "Mean Specificity Score", "setting": "[2]", "value": 0.4279},
      {"measurement": "Mean Significance Score", "setting": "[3]", "value": 2.048},
      {"measurement": "Mean Specificity Score", "setting": "[3]", "value": 0.05941},
      {"measurement": "Mean Final score (Kinase score)", "setting": "[3]; listed as KIM-161", "value": "2.16 and 2.164"}
    ]}
  ]
}
